For 1 compound, IC50 results are on record in article PMC5519579, “Inhibition of PAI-1 Activity by Toddalolactone as a Mechanism for Promoting Blood Circulation and Removing Stasis by Chinese Herb Zanthoxylum nitidum var. tomentosum” (Frontiers in Pharmacology, 2017).

The assay deals with T1, plasminogen activator inhibitor-1 (PAI-1) (Homo sapiens, UniProt P05121).
T1 construct: gene SERPINE1; recombinant human PAI-1
Kind of assay: chromogenic uPA/S-2444 assay with recombinant PAI-1; supported by SDS-PAGE of PAI-1/uPA complex and clot lysis assay. Format: biochemical.

T1 sequence (P05121 24-402, other chains not shown): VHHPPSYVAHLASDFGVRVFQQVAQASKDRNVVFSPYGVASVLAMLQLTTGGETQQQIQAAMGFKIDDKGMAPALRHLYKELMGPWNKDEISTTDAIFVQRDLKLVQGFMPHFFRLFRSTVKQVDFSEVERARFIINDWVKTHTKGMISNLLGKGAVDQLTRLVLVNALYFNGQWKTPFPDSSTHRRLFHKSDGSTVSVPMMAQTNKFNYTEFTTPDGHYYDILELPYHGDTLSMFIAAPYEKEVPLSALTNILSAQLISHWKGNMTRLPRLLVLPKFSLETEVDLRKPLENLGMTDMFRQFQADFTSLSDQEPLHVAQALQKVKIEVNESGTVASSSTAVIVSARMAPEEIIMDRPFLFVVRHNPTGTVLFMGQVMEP

The IC50 is the midpoint of a concentration-inhibition curve. As to `COc1cc2oc(=O)ccc2c(OC)c1C[C@@H](O)C(C)(C)O` (single isomer, unassigned) [Peak 4, toddalolactone], the IC50 stood at 37.3 ± 3.23 µM.
